Peptide text beside a SMILES is read from it. * marks the point of attachment. Cbz = O=C(OCc1ccccc1)*
Key:
[1] = tested on: HCT116 mTRdm-fLUC cells; test: 5-Assay / 15-Assay toxin assays, fLUC plate reader (Fold Induction); assay type: cell-based, human; conditions: 5-Assay, 6 hr, HCT116 mTRdm-fLUC 12-16 subclone #38
Protocol: The 5-Assay and 15-Assay procedures were applied to cellular pools using either of two growth procedures (e.g. a Cell Count or Confluence growth assay). For a Cell Count assay, cells from the P1 pool dish were counted and passed into a white clear bottom 96-well microtiter tray at a density of 25,000 cells per well; the leftover cells were passed into a passage 2 (P2) dish. Cells in the microtiter plate were allowed to grow for about 40 hr to achieve a ˜75% cell confluence prior to incubation with a toxic agent. Then cells in a microtiter plate were treated with complete growth medium containing either no toxin or an optimal toxin, defined as a single or multiple toxin assay that produces a maximal translational response (taken from Table 3) and incubated for 6 hours at 37° C. Each treatment was performed on triplicate wells.
After toxin incubation, cells were examined by phase contrast microscopy for signs of detachment. If more than ˜10% of cells were detached, the 96-well plates were centrifuged at 1200 rpm for 3 min to pellet the detached cells. The media were removed and replaced with 50 μL of Cell Lysis Buffer (25 mM Tris-phosphate (pH7.8), 10% glycerol, 1% Triton X-100, 1 mg/ml BSA, 2 mM EGTA and 2 mM DTT). Cells were incubated with the Cell Lysis Buffer for 10 min at RT and cell lysis was verified using a phase contrast microscope. To ensure complete lysis, the lysates were vigorously agitated using the multichannel pipettor. Any air bubbles formed as a result of agitation were manually removed with a syringe needle. Luminescence was measured using the FLUOstar Optima (BMG Labtech) microplate reader. To develop luminescence, wells were injected with 5 μL of the D-luciferin solution dissolved in Reaction Buffer (25 mM Glycylglycine (pH 7.8), 15 mM MgSO4, 4 mM EDTA, 15 mM Potassium phosphate, 1 mM DTT, 1 mM Coenzyme A, 6.7 mM ATP and 3.35 mM D-luciferin). After 4 sec with shaking, luminescence values were measured using the lens filter at gains of 2500-4000.
Light values were converted to Fold Induction using the ratio of values produced by treated and untreated cells. The maximal TR-specific translational response produced by the 5-Toxin or 15-Toxin assay was used to assign an optimal toxin assay (maximal translational response) which was subsequently used to screen subclones derived from this pool and to assign a Class designation. […]
In one test, the 5-Assay procedure (Table 3) was applied to HCT116 mTRdm-fLUC 12-16 subclone #30 cells (FIG. 1A). […] Samples were then processed with Lysis buffer and read in a plate reader. […]
Triplicate samples of HCT116 mTRdm-fLUC 12-16 Sub#30 cells were cultured with the two-Toxin assays using a standard plate reader protocol (FIG. 1C). […]

[2] = tested on: HEK293 hTRdm-fLuc #53 and HEK293 mTRdm-fLuc #12 subclones; test: Microtubule disruptor single-Toxin dose response, cap-independent; assay type: cell-based, human; conditions: cap-dependent and cap-independent assays
Protocol: The plate reader values were averaged and expressed as the ratio of treated to untreated samples (Fold Induction). Highly similar TR expression profile were produced by the human (hTRdm, top panel) and the mouse (mTRdm, bottom panel) TR cassettes. […] In contrast, significant increases in reporter activity were only observed at nocodazole concentrations greater than 250 nM. As in the cap-dependent assay, taxol-specific reporter increases were only observed at the 2.5 uM and 5 uM doses.
Highly similar cap-independent translational profiles were produced by each TR-expressing cell line (FIGS. 29B and C). […] This contrasted with the nocodazole responses, where significant increases were observed only at concentrations larger than 250 nM. As before, taxol-specific translational increases were only observed at the 2.5 uM and 5 uM doses.

[3] = tested on: HEK293 CMV-fLuc subclone #3; test: Updated 15-Assay / 21-Assay, cap-dependent translational responses; assay type: cell-based, human; conditions: 21-Assay, single-Toxin (Unknown), 6 hr
Excerpt: (§1) The dashed line represents the level of translational response in the untreated samples.
Following 6 hr exposure to the compounds, cells were lysed and fLuc protein activity measured using a standard microplate reader assay. The triplicate plate reader values were averaged and expressed as the ratio of treated to untreated samples (Fold Induction). The dashed line represents the level of translational response in the untreated samples.
(§2) The 21-Assay procedure employs the same standard toxins as the Updated 15-Assay protocol. The extra 6 assays involve an unknown or an uncharacterized compound and its pairwise combinations with the five toxins: Unknown, Unknown+TPA, Unknown+Colchcine, Unknown+Bortezomib (Velcade), Unknown+Low dose Calon, and Unknown+Hycamtin (Topotecan).
Application of single-Toxin and two-Toxin assays in the Updated 15-Assay protocol was used to define cap-dependent translational responses in the HEK293 CMV-fLuc #3 subclone (FIG. 30A).
The combinatorial process described in this example provides a system for testing translational regulation by unknown compounds. In this example, a 21-Assay setup is described that employs the single and pairwise combinatorial application of 5 toxins, as in a standard 15-Toxin assay, and the addition of a sixth substance. Inclusion of the sixth substance requires the expansion of the assay group to a total of 21 single- and two-Toxin assays. For this example, a control substance (taxol) was selected from the original 15-Assay system.

[4] = tested on: HEK293 mTRdm-fLuc subclone #13 and HEK293 hTRdm-gLuc subclone #79; test: Updated 15-Assay / 21-Assay, TR translational responses (fLuc, gLuc); assay type: cell-based, human; conditions: 21-Assay, subclone #13, taxol as Unknown
Protocol: as §1
As before, secreted Gaussia Luciferase (gLUC) activity was measured in conditioned media 6 hr after drug application and protein activity expressed as the ratio of treated to untreated samples (Fold Induction). The dashed line represents the translational response in untreated cells.
The dashed line represents the translational response produced by untreated cell samples.
Following a 6 hr culture time, secreted gLuc activity was measured in conditioned media using a standard microplate reader assay and expressed as the ratio of treated to untreated samples (Fold Induction). The dashed line represents the level of translational response in the untreated samples. Given that the gLuc protein is secreted into the media, it escapes the cytoplasmic protein turnover processes acting on the fLUC protein. Therefore, any difference in the apparent TR response is a likely result of variation in reporter protein synthesis, secretion or reduced protein turnover.
as §2, with “(Topotecan). […]” for “(Topotecan).”

[5] = tested on: MCF7 CMV-fLuc subclones #44 and #48; test: PKC activator dose response, cap-dependent translation (fLuc); assay type: cell-based, human
Protocol: Following 6 hr exposure to the Single-Toxin TPA assay, cells were lysed and fLuc protein activity measured using a standard microplate reader assay. The raw values were averaged and expressed as the ratio of treated to untreated samples (Fold Induction).
Dashed lines represent translational response levels produced by a 100 nM TPA Single-Toxin assay. The Bryostatin 1 concentrations (top panel) encompassed the TPA concentrations used in FIG. 27A. […] The Bryostatin 2 dose response curve (bottom panel) employed higher drug concentrations (the maximal tested dose was 5× the largest TPA and Bryostatin 1 amounts). At the highest tested dose (2.5 uM), Bryostatin 2 produced fLuc activity consistent with the level observed with 100 nM TPA.
In addition to measuring cap-dependent and cap-independent translational effects, Class-specific translational activity and toxin-defined actions, the previously described materials and methods allow for a variety of applications designed to detect and characterize agents and processes that regulate ribosome activity. In this example, comparative dose response assays were used to detect cap-dependent and cap-independent translational regulation in MCF7 cells. The basis for this application was the observation that distinct translational responses are produced by compounds at different doses. When an assortment of compounds act on a common molecular target, they can be grouped into a genus of related drugs. By comparing individual species of a compound genus over a defined dose range, differences in translational regulation can be defined. Furthermore, these translational differences can often be linked to biological differences.
In this example (FIG. 27), the three PKC activators produced similar dose response trends in cap-dependent assays. […] However, macrolide lactones produced translational increases that were generally 60-70% of the TPA translational response (FIG. 27B). In fact, a 25 fold increase in Bryostatin 2 concentration (2.5 uM) was needed to produce a translational magnitude similar to the 100 nM TPA assay (FIG. 27B).

[6] = tested on: MCF7 mTRdm-fLuc subclones #8, #27, and #45; test: PKC activator dose response, cap-independent TR translation (fLuc); assay type: cell-based, human
Protocol: Following 6 hr culture with a TPA single-Toxin assay, cells were lysed and fLuc protein activity measured using a standard microplate reader assay. The plate reader values were averaged and expressed as the ratio of treated to untreated samples (Fold Induction).
As with FIG. 27B, dashed lines represent translational response levels achieved by the 100 nM TPA assay in each cell line. […] A further difference between the cap-dependent and cap-independent assays was the observation that increased Bryostatin 2 concentrations (5× the maximal TPA dose) never produced fLUC activity equivalent to the 100 nM TPA assay. Thus, the Toxin Assay procedure can detect a statistically significant difference in cap-dependent and cap-independent translation in compounds that activate PKC activity.
In the cap-independent assays, a similar dose response trend was observed over a 1 nM to 250 nM range with a translational peak at a 100 nM dose. However, the magnitude of the Bryostatin increases were generally 30% of 100 nM TPA response.

[7] = tested on: Protein Kinase C (PKC); conditions: cited from earlier work
[8] = tested on: Class III HCT116 mTRdm-fLUC 7-5 and 12-16 cell lines; test: Western blot of fLUC protein in 15-Assay cell extracts; assay type: cell-based, human
Protocol: The remaining cell suspension was centrifuged as described above and the pellets stored at −70/−80° C. for subsequent protein extraction and Western blot analysis. For protein extraction, cells were thawed on ice and resuspended in equal volumes of the Suspension Buffer (100 mM NaCl, 10 mM TrisHCl [pH 7.6], 1 mM EDTA, 1 mg/mL aprotinin, 100 μg/mL PMSF) and the 2×SDS Buffer (100 mM TrisHCl (pH6.8), 4% SDS, 20% glycerol, 20 mM DTT, 10 mM EDTA, 2× Roche Protease Inhibitor Cocktail). The extracts were homogenized by vigorous mixing and boiling for 3 min. Additional homogenization (when needed) was achieved by passing samples through a syringe fitted with a 26 G needle. At this point, the extracts were either analyzed by SDS-PAGE gel or stored at −80° C.
To produce a near quantitative Western blot analysis, equal protein concentrations are loaded on Western blots. […] The fLUC protein was detected using an anti-fLUC primary antibody (Sigma; 1:1000 dilution). After incubation with a primary antibody and extensive washing with 1×PBS-T, proteins binding the primary antibody were detected by incubation with a horseradish peroxidase (HRP) conjugated anti-rabbit secondary antibody (Amersham; 1:10000 dilution). Following incubation with the secondary antibody and extensive washing, reactive proteins were detected with the ECL reagent system (Amersham) as described by the vendor. […]

CC(=O)O[C@H]1C(=O)[C@@]2(C)[C@H]([C@H](OC(=O)c3ccccc3)[C@]3(O)C[C@H](OC(=O)[C@H](O)[C@@H](NC(=O)c4ccccc4)c4ccccc4)C(C)=C1C3(C)C)[C@]1(OC(C)=O)CO[C@@H]1C[C@@H]2O [Taxol, Paclitaxel]
TR-specific toxin response [1]: Maximal TR-specific toxin responses | response profile compared with other microtubule disruptor drugs [2]: smallest response profile of all the microtubule disruptor drugs tested | effect on cap-dependent fLuc protein production [3]: minimal effect on cap-dependent fluc protein production | effect on fLUC activity [4]: small synergistic increases in fLUC activity in the single-Toxin and the colchicine+taxol, calcimycin+taxol, bortezomib+taxol two-Toxin assays, but not in the TPA+taxol or topotecan+taxol assays

Bryostatin 2
fold increase in concentration needed for translational magnitude similar to the 100 nM TPA assay [5]: 25 fold | dose producing fLuc activity consistent with the level observed with 100 nM TPA ([5]; single-Toxin, highest tested dose): 2.5 µM | % of the 100 nM TPA response ([6]; dose 2.5 uM): ~50% | magnitude of translational response versus 100 nM TPA tests ([6]; single-Toxin): never reached the fLuc activity produced in 100 nM TPA tests | inhibition constant (Ki) relative to the Ki of Bryostatin 1 [7]: 10 ×

CC(C)C[C@@H](C=O)NC(=O)[C@H](CC(C)C)NC(=O)[C@H](CC(C)C)NC(=O)OCc1ccccc1 [MG132, Z-Leu-Leu-Leu-aldehyde] (Cbz-Leu-Leu-Leu-aldehyde)
fLUC protein levels by Western blot ([8]; HCT116 mTRdm-fLUC 7-5, 15-Assay): significant fLUC protein levels | fLUC protein levels by Western blot ([8]; HCT116 mTRdm-fLUC 12-16, 15-Assay, 6 hrs): extremely high protein levels

Reference: patent publication US9388405B2, “Method for identifying a subpopulation of mammalian cells with distinctive ribosome translation profiles” (priority 2009, dated 2016)
